In PubChem BioAssay (NCI):
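GI50 is the concentration that inhibits growth by half. TGI marks complete inhibition of growth.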

Key:
Experiment in all cases: inhibition of tumour cell growth, NCI panel, 384-well format
OVCAR-4 ovarian = system: OVCAR-4 ovarian
HL-60(TB) leukemia = system: HL-60(TB) leukemia
COLO 205 colon = system: COLO 205 colon
MALME-3M melanoma = system: MALME-3M melanoma
RXF 393 renal = system: RXF 393 renal
OVCAR-5 ovarian = system: OVCAR-5 ovarian
CCRF-CEM leukemia = system: CCRF-CEM leukemia
NCI-H522 lung = system: NCI-H522 lung
SF-268 CNS = system: SF-268 CNS
SK-MEL-28 melanoma = system: SK-MEL-28 melanoma
SF-539 CNS = system: SF-539 CNS
KM12 colon = system: KM12 colon
SF-295 CNS = system: SF-295 CNS
PC-3 prostate = system: PC-3 prostate
SK-MEL-5 melanoma = system: SK-MEL-5 melanoma
OVCAR-3 ovarian = system: OVCAR-3 ovarian
786-0 renal = system: 786-0 renal
MDA-MB-468 breast = system: MDA-MB-468 breast
NCI-H23 lung = system: NCI-H23 lung
UO-31 renal = system: UO-31 renal
RPMI-8226 leukemia = system: RPMI-8226 leukemia
M14 melanoma = system: M14 melanoma
MDA-MB-435 melanoma = system: MDA-MB-435 melanoma
HOP-92 NSCLC = system: HOP-92 NSCLC
UACC-257 melanoma = system: UACC-257 melanoma
CAKI-1 renal = system: CAKI-1 renal
LOX IMVI melanoma = system: LOX IMVI melanoma
BT-549 breast = system: BT-549 breast
T-47D breast = system: T-47D breast

C[C@H](c1ccc(Cl)cc1N)N1C(=O)c2cc(I)ccc2N(CCCN2CCN(C)CC2)C(=O)[C@@H]1c1ccc(Cl)cc1
TGI (OVCAR-4 ovarian): 2900 nM
GI50 (HL-60(TB) leukemia): 255 nM
TGI (HL-60(TB) leukemia): 641 nM
GI50 (COLO 205 colon): 1640 nM
TGI (COLO 205 colon): 3020 nM
GI50 (MALME-3M melanoma): 1060 nM
TGI (MALME-3M melanoma): 2250 nM
GI50 (RXF 393 renal): 848 nM
TGI (RXF 393 renal): 2120 nM
GI50 (OVCAR-5 ovarian): 1770 nM
TGI (OVCAR-5 ovarian): 3160 nM
GI50 (CCRF-CEM leukemia): 1410 nM
TGI (CCRF-CEM leukemia): 2720 nM
GI50 (NCI-H522 lung): 1540 nM
TGI (NCI-H522 lung): 2880 nM
GI50 (SF-268 CNS): 1770 nM
TGI (SF-268 CNS): 3160 nM
GI50 (SK-MEL-28 melanoma): 1590 nM
TGI (SK-MEL-28 melanoma): 2950 nM
GI50 (SF-539 CNS): 1640 nM
TGI (SF-539 CNS): 3010 nM
GI50 (KM12 colon): 1560 nM
TGI (KM12 colon): 2920 nM
GI50 (SF-295 CNS): 1700 nM
TGI (SF-295 CNS): 3080 nM
GI50 (PC-3 prostate): 1660 nM
TGI (PC-3 prostate): 3040 nM
GI50 (SK-MEL-5 melanoma): 1110 nM
TGI (SK-MEL-5 melanoma): 2310 nM
GI50 (OVCAR-3 ovarian): 1450 nM
TGI (OVCAR-3 ovarian): 2780 nM
GI50 (786-0 renal): 1600 nM
TGI (786-0 renal): 2960 nM
GI50 (MDA-MB-468 breast): 1710 nM
TGI (MDA-MB-468 breast): 3090 nM
GI50 (NCI-H23 lung): 1570 nM
TGI (NCI-H23 lung): 2920 nM
GI50 (UO-31 renal): 1150 nM
TGI (UO-31 renal): 2370 nM
GI50 (RPMI-8226 leukemia): 20.9 nM
TGI (RPMI-8226 leukemia): 191 nM
GI50 (M14 melanoma): 1140 nM
TGI (M14 melanoma): 2360 nM
GI50 (MDA-MB-435 melanoma): 1710 nM
TGI (MDA-MB-435 melanoma): 3080 nM
GI50 (HOP-92 NSCLC): 1130 nM
TGI (HOP-92 NSCLC): 2340 nM
GI50 (UACC-257 melanoma): 1220 nM
TGI (UACC-257 melanoma): 2470 nM
GI50 (CAKI-1 renal): 482 nM
TGI (CAKI-1 renal): 1780 nM
GI50 (LOX IMVI melanoma): 1700 nM
TGI (LOX IMVI melanoma): 3090 nM
GI50 (BT-549 breast): 1550 nM
TGI (BT-549 breast): 2900 nM
GI50 (T-47D breast): 1460 nM
TGI (T-47D breast): 2780 nM
